Results taken from patent publication US5972982A (priority 1997, dated 1999).
In brackets after ≈: the same amount, converted by molar mass.

How the values were obtained:
[1] = tested on: several DNA and RNA viruses; details: against several DNA and RNA viruses; cited from earlier work
[2] = tested on: Buffalo Green Monkey Kidney Cells (ATCC CCL 81)
[3] = tested on: Poliovirus Type III vaccine strain (ATCC VR 300); format: cell-based
[4] = tested on: Poliovirus Type III vaccine strain (ATCC VR 300); assay: microbe, parasite or virus in culture; format: cell-based
[5] = tested on: Mycobacterium tuberculosis strain H37Rv; assay: microbe, parasite or virus in culture; format: cell-based; details: read-out: MIC VERSUS H37Rv
Streptococcus pyogenes = assay: microbe, parasite or virus in culture; details: 48 h
[6] = tested on: HEP 2 Cells (ATCC HB 8065); assay: Antiviral assay of Respiratory Syncytial Virus: toxicity to uninfected cells; format: cell-based
Method: c. […] The cell count wells receive media only.
d. The cultures are incubated for 24 hr.
e. […] Scoring is as described above.

## Nc1ncnc2c1ncn2C[C@H](O)CO [(S)-9-(2',3'-dihydroxypropyl)adenine]
[1]
  broad spectrum antiviral activity: broad spectrum antiviral activity

## Nc1ncnc2c1ncn2C[C@@H](CO)OCP(=O)(O)O [(S)-9-(3'-dihydroxy-2'-phosphonylmethoxypropyl)adenine]
[1]
  broad spectrum antiviral activity: broad spectrum antiviral activity

## CCCCCCCCCCCCCCCCCCOCC(CO)n1cncn1 (stereo not shown) [CPR 1004, 1-O-octadecyl-2-(1-triazolyl)-2-deoxy-glycerol]
[2]
  TOXICITY: N
  toxicity (in words): not toxic at the concentrations tested
[3]
  VIRAL CPE: ±
[4]
  VIRUS YIELD (PFU/mL): 7.0 × 10^5 PFU/mL
  VIRUS YIELD FOLD-REDUCTION: 41.7 fold
[4]; Enterovirus C, read-out: VIRUS YIELD (YIELD)
  activity at 100000 µM: 2.4%
[5]
  MIC: 12.5 µg/mL (≈ 31.6 µM)
Streptococcus pyogenes
  MIC: 1 µg/mL (≈ 2.53 µM)

## CCCCCCCCCCCCCCCCCCOCC(CO)n1ccnc1 (stereo not shown) [CPR 1005, 1-O-octadecyl-2-(1-imidazolyl)-2-deoxy-glycerol]
[2]
  TOXICITY: N
  toxicity (in words): not toxic at the concentrations tested
[4]
  VIRUS YIELD (PFU/mL): 2.8 × 10^3 PFU/mL
  VIRUS YIELD FOLD-REDUCTION: 1.03×10^4 fold
[5]
  MIC: 6.25 µg/mL (≈ 15.8 µM)
Streptococcus pyogenes
  MIC: 10 µg/mL (≈ 25.3 µM)
[6]; Table 4, HEP 2 cells, 24 hr, final concentration 100 (mM)
  TOXICITY: N
[6]; at the dosages tested
  toxicity (in words): not toxic at the dosages tested

## CCCCCCCCCCCCCCCCOCC(CO)n1ccnc1 (stereo not shown) [CPR 1104, 1-O-hexadecyl-2-(1-imidazolyl)-2-deoxy-glycerol]
[5]
  MIC: 1.6 µg/mL (≈ 4.36 µM)
